Measured values taken from patent publication US9695155B2, “Herbicidal substituted pyrimidinyloxy benzene compounds” (E. I. DU PONT DE NEMOURS AND COMPANY, priority 2013, dated 2017).

What was measured:
[1] = system: barnyardgrass; test: Test E postemergence; format: in vivo, Echinochloa crus-galli
Excerpt: (§1) Seeds of plant species selected from corn (Zea mays), soybean (Glycine max), velvetleaf (Abutilon theophrasti), lambsquarters (Chenopodium album), wild poinsettia (Euphorbia heterophylla), palmer pigweed (Amaranthus palmeri), waterhemp (common waterhemp, Amaranthus rudis), surinam grass (Brachiaria decumbens), large (Lg) crabgrass (Digitaria sanguinalis), Brazilian crabgrass (Digitaria horizontalis), fall panicum (Panicum dichotomiflorum), giant foxtail (Setaria faberii), green foxtail (Setaria viridis), goosegrass (Eleusine indica), johnsongrass (Sorghum halepense), ragweed (common ragweed, Ambrosia elatior), barnyardgrass (Echinochloa crus-galli), sandbur (southern sandbur, Cenchrus echinatus), arrowleaf sida (Sida rhombifolia), Italian ryegrass (Lolium multiflorum), dayflower (Virginia (VA) dayflower, Commelina virginica), field bindweed (Convolvulus arvensis), morningglory (Ipomoea coccinea), nightshade (eastern black nightshade, Solanum ptycanthum), kochia (Kochia scoparia), yellow nutsedge (Cyperus esculentus), cocklebur (common cocklebur, Xanthium strumarium), smartweed (ladysthumb smartweed, and hairy beggarticks (Bidens pilosa), were planted into a silt loam soil and treated preemergence with test chemicals formulated in a non-phytotoxic solvent mixture which included a surfactant.
(§2) At the same time, plants from these crop and weed species and also horseweed (Canada horseweed, Conyza canadensis), waterhemp_RES1, (ALS & Triazine resistant common waterhemp, Amaranthus rudis), and waterhemp_RES2, (ALS & HPPD resistant common waterhemp, Amaranthus rudis) were planted in pots containing Redi-Earth® planting medium (Scotts Company, 14111 Scottslawn Road, Marysville, Ohio 43041) comprising spaghnum peat moss, vermiculite, wetting agent and starter nutrients were treated with postemergence applications of test chemicals formulated in the same manner. Plants ranged in height from 2 to 18 cm for postemergence treatments (1- to 4-leaf stage). Treated plants and controls were maintained in a greenhouse for 14 to 21 days, after which time all species were compared to controls and visually evaluated. Plant response ratings, summarized in Table E, are based on a scale of 0 to 100 where 0 is no effect and 100 is complete control. A dash (-) response means no test result.

[2] = system: wild poinsettia; test: Test E postemergence; format: in vivo, Euphorbia heterophylla
Excerpt: as §1, §2

[3] = system: Italian ryegrass; test: Test E postemergence; format: in vivo, Lolium multiflorum
Excerpt: as §1, §2

[4] = system: arrowleaf sida; test: Test E postemergence; format: in vivo, Sida rhombifolia
How it was run: (§3)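 Test chemicals formulated in a non-phytotoxic solvent mixture containing a surfactant were applied preemergence to seeds in silt loam soil or postemergence to plants at the 1- to 4-leaf stage in potting mix. After 14 to 21 days in a greenhouse, injury was visually rated against controls on a 0-100 scale (0 = no effect, 100 = complete control).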

[5] = system: Brazilian crabgrass; test: Test E postemergence; format: in vivo, Digitaria horizontalis
How it was run: as §3

[6] = system: sedge, umbrella; test: Test C flooded paddy test; format: in vivo, Cyperus difformis; conditions: Flood, scale 0 to 100 (0 no effect, 100 complete control), 13 to 15 days
How it was run: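 Visual injury ratings against untreated controls, taken 13 to 15 days after compound was added to paddy water standing 3 cm above the soil.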

[7] = Postemergence, 31 g ai/ha, scale 0 to 100
[8] = Postemergence, 62 g ai/ha, scale 0 to 100
[9] = Postemergence, 125 g ai/ha, scale 0 to 100
[10] = postemergence, 16 g ai/ha, scale 0 to 100, 0 no effect, 100 complete control
[11] = postemergence, 8 g ai/ha, scale 0 to 100, 0 no effect, 100 complete control

Clc1cnc(Oc2cccc(Cl)c2-n2cc(I)cn2)nc1 [Compound 181] was tested, and the “Plant response rating, Barnyardgrass” value [1, 7] was 20, the “Plant response rating, Barnyardgrass” value [1, 8] was 15 and the “Plant response rating, Barnyardgrass” value [1, 9] was 25. The “Plant response rating, Barnyardgrass” value [1, 10] was 10, the “Plant response rating, Poinsettia, Wild” value [2, 7] was 50 and the “Plant response rating, Poinsettia, Wild” value [2, 8] was 50. The “Plant response rating, Poinsettia, Wild” value [2, 9] was 60, the “Plant response rating, Poinsettia, Wild” value [2, 10] was 40 and the “Plant response rating, Ryegrass, Italian” value [3, 7] was 5. For the same molecule, the “Plant response rating, Ryegrass, Italian” value [3, 8] was 10, the “Plant response rating, Ryegrass, Italian” value [3, 9] was 20 and the “Plant response rating, Ryegrass, Italian” value [3, 10] was 5. For the same molecule, the “Plant response rating, Arrowleaf Sida” value [4, 7] was 75, the “Plant response rating, Arrowleaf Sida” value [4, 8] was 70 and the “Plant response rating, Arrowleaf Sida” value [4, 9] was 95. For the same molecule, the “Plant response rating, Arrowleaf Sida” value [4, 10] was 60, the “Plant response rating, Crabgrass, Brazil” value [5, 7] was 20 and the “Plant response rating, Crabgrass, Brazil” value [5, 8] was 30. The “Plant response rating, Crabgrass, Brazil” value [5, 9] was 30 and the “Plant response rating, Crabgrass, Brazil” value [5, 10] was 20.
FC(F)(F)c1cnn(-c2c(Br)cccc2Oc2ncc(Cl)cn2)c1 [Compound 191] was tested, and the “Plant response rating, Barnyardgrass” value [1, 7] was 0, the “Plant response rating, Barnyardgrass” value [1, 8] was 0 and the “Plant response rating, Barnyardgrass” value [1, 9] was 0. For the same molecule, the “Plant response rating, Barnyardgrass” value [1, 11] was 0, the “Plant response rating, Barnyardgrass” value [1, 10] was 0 and the “Plant response rating, Poinsettia, Wild” value [2, 7] was 50. The “Plant response rating, Poinsettia, Wild” value [2, 8] was 50, the “Plant response rating, Poinsettia, Wild” value [2, 9] was 60 and the “Plant response rating, Poinsettia, Wild” value [2, 11] was 20. The “Plant response rating, Poinsettia, Wild” value [2, 10] was 40, the “Plant response rating, Ryegrass, Italian” value [3, 7] was 0 and the “Plant response rating, Ryegrass, Italian” value [3, 8] was 0. For the same molecule, the “Plant response rating, Ryegrass, Italian” value [3, 9] was 0, the “Plant response rating, Ryegrass, Italian” value [3, 11] was 0 and the “Plant response rating, Ryegrass, Italian” value [3, 10] was 0. For the same molecule, the “Plant response rating, Arrowleaf Sida” value [4, 7] was 70, the “Plant response rating, Arrowleaf Sida” value [4, 8] was 70 and the “Plant response rating, Arrowleaf Sida” value [4, 9] was 100. The “Plant response rating, Arrowleaf Sida” value [4, 11] was 50, the “Plant response rating, Arrowleaf Sida” value [4, 10] was 60 and the “Plant response rating, Sedge, Umbrella” value ([6]; 31 g ai/ha) was 40. The “Plant response rating, Sedge, Umbrella” value ([6]; 62 g ai/ha) was 60, the “Plant response rating, Sedge, Umbrella” value ([6]; 125 g ai/ha) was 85 and the “Plant response rating, Sedge, Umbrella” value ([6]; 250 g ai/ha) was 98. The “Plant response rating, Crabgrass, Brazil” value [5, 7] was 10, the “Plant response rating, Crabgrass, Brazil” value [5, 8] was 10 and the “Plant response rating, Crabgrass, Brazil” value [5, 9] was 20. For the same molecule, the “Plant response rating, Crabgrass, Brazil” value [5, 11] was 10 and the “Plant response rating, Crabgrass, Brazil” value [5, 10] was 10.
In the case of N#Cc1cccc(Oc2ncc(Cl)cn2)c1-n1cc(OCC(F)(F)F)cn1 [Compound 274, 3-[(5-chloro-2-pyrimidinyl)oxy]-2-[4-(2,2,2-trifluoroethoxy)-1H-pyrazol-1-yl]benzonitrile], the pest or weed control at 31 g/ha ([1]; Echinochloa crus-galli, post-emergence, Postemergence, 31 g ai/ha, scale 0 to 100, read-out: Plant response rating, Barnyardgrass) is reported as 20%, the pest or weed control at 62 g/ha ([1]; Echinochloa crus-galli, post-emergence, Postemergence, 62 g ai/ha, scale 0 to 100, read-out: Plant response rating, Barnyardgrass) is reported as 10% and the pest or weed control at 125 g/ha ([1]; Echinochloa crus-galli, post-emergence, Postemergence, 125 g ai/ha, scale 0 to 100, read-out: Plant response rating, Barnyardgrass) is reported as 60%. The pest or weed control at 8 g/ha ([1]; Echinochloa crus-galli, post-emergence, postemergence, 8 g ai/ha, scale 0 to 100, 0 no effect, 100 complete control, read-out: Plant response rating, Barnyardgrass) was 5%, the pest or weed control at 16 g/ha ([1]; Echinochloa crus-galli, post-emergence, postemergence, 16 g ai/ha, scale 0 to 100, 0 no effect, 100 complete control, read-out: Plant response rating, Barnyardgrass) was 10% and the pest or weed control at 31 g/ha ([2]; Euphorbia heterophylla, post-emergence, Postemergence, 31 g ai/ha, scale 0 to 100, read-out: Plant response rating, Poinsettia, Wild) was 70%. It also gave a pest or weed control at 62 g/ha ([2]; Euphorbia heterophylla, post-emergence, Postemergence, 62 g ai/ha, scale 0 to 100, read-out: Plant response rating, Poinsettia, Wild) of 70%, a pest or weed control at 125 g/ha ([2]; Euphorbia heterophylla, post-emergence, Postemergence, 125 g ai/ha, scale 0 to 100, read-out: Plant response rating, Poinsettia, Wild) of 70% and a pest or weed control at 8 g/ha ([2]; Euphorbia heterophylla, post-emergence, postemergence, 8 g ai/ha, scale 0 to 100, 0 no effect, 100 complete control, read-out: Plant response rating, Poinsettia, Wild) of 50%. It also gave a pest or weed control at 16 g/ha ([2]; Euphorbia heterophylla, post-emergence, postemergence, 16 g ai/ha, scale 0 to 100, 0 no effect, 100 complete control, read-out: Plant response rating, Poinsettia, Wild) of 65%, a pest or weed control at 31 g/ha ([3]; Lolium multiflorum, post-emergence, Postemergence, 31 g ai/ha, scale 0 to 100, read-out: Plant response rating, Ryegrass, Italian) of 10% and a pest or weed control at 62 g/ha ([3]; Lolium multiflorum, post-emergence, Postemergence, 62 g ai/ha, scale 0 to 100, read-out: Plant response rating, Ryegrass, Italian) of 10%. The pest or weed control at 125 g/ha ([3]; Lolium multiflorum, post-emergence, Postemergence, 125 g ai/ha, scale 0 to 100, read-out: Plant response rating, Ryegrass, Italian) was 40%, the pest or weed control at 8 g/ha ([3]; Lolium multiflorum, post-emergence, postemergence, 8 g ai/ha, scale 0 to 100, 0 no effect, 100 complete control, read-out: Plant response rating, Ryegrass, Italian) was 0% and the pest or weed control at 16 g/ha ([3]; Lolium multiflorum, post-emergence, postemergence, 16 g ai/ha, scale 0 to 100, 0 no effect, 100 complete control, read-out: Plant response rating, Ryegrass, Italian) was 5%. The pest or weed control at 31 g/ha ([4]; Sida rhombifolia, post-emergence, Postemergence, 31 g ai/ha, scale 0 to 100, read-out: Plant response rating, Arrowleaf Sida) was 60%, the pest or weed control at 62 g/ha ([4]; Sida rhombifolia, post-emergence, Postemergence, 62 g ai/ha, scale 0 to 100, read-out: Plant response rating, Arrowleaf Sida) was 75% and the pest or weed control at 125 g/ha ([4]; Sida rhombifolia, post-emergence, Postemergence, 125 g ai/ha, scale 0 to 100, read-out: Plant response rating, Arrowleaf Sida) was 85%. For the same molecule, the pest or weed control at 8 g/ha ([4]; Sida rhombifolia, post-emergence, postemergence, 8 g ai/ha, scale 0 to 100, 0 no effect, 100 complete control, read-out: Plant response rating, Arrowleaf Sida) was 55%, the pest or weed control at 16 g/ha ([4]; Sida rhombifolia, post-emergence, postemergence, 16 g ai/ha, scale 0 to 100, 0 no effect, 100 complete control, read-out: Plant response rating, Arrowleaf Sida) was 75% and the pest or weed control at 31 g/ha ([5]; Digitaria horizontalis, post-emergence, Postemergence, 31 g ai/ha, scale 0 to 100, read-out: Plant response rating, Crabgrass, Brazil) was 25%. The pest or weed control at 62 g/ha ([5]; Digitaria horizontalis, post-emergence, Postemergence, 62 g ai/ha, scale 0 to 100, read-out: Plant response rating, Crabgrass, Brazil) was 35%, the pest or weed control at 125 g/ha ([5]; Digitaria horizontalis, post-emergence, Postemergence, 125 g ai/ha, scale 0 to 100, read-out: Plant response rating, Crabgrass, Brazil) was 50% and the pest or weed control at 8 g/ha ([5]; Digitaria horizontalis, post-emergence, postemergence, 8 g ai/ha, scale 0 to 100, 0 no effect, 100 complete control, read-out: Plant response rating, Crabgrass, Brazil) was 10%. The pest or weed control at 16 g/ha ([5]; Digitaria horizontalis, post-emergence, postemergence, 16 g ai/ha, scale 0 to 100, 0 no effect, 100 complete control, read-out: Plant response rating, Crabgrass, Brazil) was 20%.
